For assay [1], the system named is phosphorylation of CDK1 at Thr14 in HCC1806 cells. Nature of the assay: Cell lysate AlphaLISA assay measuring inhibition of phosphorylation of CDK1 Thr14. It counts as cell-based. To be noted: Homo sapiens, HCC1806, 4 h, compounds incubated 4 hours, AlphaLISA SureFire Ultra CDK1 Thr14, read-out: Cellular IC50. A digest of the protocol:
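HCC1806 cells treated with compound for 4 h at 37 °C, lysed, and phospho-CDK1 Thr14 quantified by AlphaLISA SureFire Ultra. Data normalized to DMSO (0% inhibition) and 3 μM reference compound; IC50 derived.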

The next assay addresses T1, PKMYT1 (Homo sapiens, UniProt Q99640).
T1 construct: PKMYT1 (93 kD, full length, N-terminal GST tag from Signal Chem); GST (N); purchased Signal Chem
T1 sequence (Q99640 1-499): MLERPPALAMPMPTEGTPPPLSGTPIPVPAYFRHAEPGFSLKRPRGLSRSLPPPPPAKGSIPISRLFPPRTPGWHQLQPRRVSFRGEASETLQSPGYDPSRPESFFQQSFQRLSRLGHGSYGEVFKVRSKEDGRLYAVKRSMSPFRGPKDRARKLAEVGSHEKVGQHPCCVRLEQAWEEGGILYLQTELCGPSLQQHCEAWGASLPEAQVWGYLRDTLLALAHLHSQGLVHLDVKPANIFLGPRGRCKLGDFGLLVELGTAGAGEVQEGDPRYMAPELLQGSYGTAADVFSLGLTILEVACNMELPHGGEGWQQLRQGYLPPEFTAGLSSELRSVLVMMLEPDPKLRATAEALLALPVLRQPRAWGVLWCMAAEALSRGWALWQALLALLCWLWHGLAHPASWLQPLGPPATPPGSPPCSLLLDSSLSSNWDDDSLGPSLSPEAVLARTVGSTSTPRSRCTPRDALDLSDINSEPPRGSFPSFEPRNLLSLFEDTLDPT
Put plainly: ADP-Glo PKMYT1 ATP-depletion assay. The settings on record: 50 nM PKMYT1, 13.3 nM CDK1, 88 μM ATP, 120 minutes at RT, read-out: Biochemical IC50. In short, it runs like this: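 Full-length N-GST PKMYT1 (50 nM) incubated 120 min at RT with full-length GST-CDK1 (13.3 nM) and 88 μM ATP in Hepes buffer containing Mg2+, Mn2+, DTT and BSA; DMSO <10%. ADP formed was converted via ADP-Glo to luminescence; IC50 derived.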
A general note: ADP-Glo first removes unused ATP, then detects ADP through luciferase.

Among the data in patent publication US20260207565A1, “COMPOUNDS THAT INHIBIT PKMYT1” (Exelixis, Inc., priority 2022, published 2026) are IC50 values, retold here.

Usually IC50 stands for the concentration that gives 50% inhibition.

In the case of `CCn1cc(C#N)c2c(-c3c(C)ccc(O)c3C)cc(C(N)=O)nc21` [Compound 29, 3-cyano-1-ethyl-4-(3-hydroxy-2,6-dimethylphenyl)pyrrolo[2,3-b]pyridine-6-carboxamide], the IC50 (in assay [1]; at PKMYT1) was less than 50 nM in each case.

`Cc1ccc(O)c(C)c1-c1cc(C(N)=O)cc2c1cnn2C` [Compound 35, 4-(3-hydroxy-2,6-dimethylphenyl)-1-methyl-indazole-6-carboxamide]: the figures for the IC50 (in assay [1]; on PKMYT1) were not below 5000 nM and 1000 to 5000 nM, respectively.

Turning to `Cc1ccc(O)c(C)c1-c1cc(C(N)=O)cc2nn(C)cc12` [Compound 36, 4-(3-hydroxy-2,6-dimethylphenyl)-2-methyl-indazole-6-carboxamide], the IC50 in assay [1] was not below 5000 nM; on PKMYT1, 1000 to 5000 nM.

`Cc1ccc(O)c(C)c1-c1cc(C(N)=O)cc2cn[nH]c12` [Compound 37, 7-(3-hydroxy-2,6-dimethylphenyl)-1H-indazole-5-carboxamide]: the IC50 (in assay [1]; on PKMYT1) was 1000 to 5000 nM throughout.

For `CNC(=O)c1cc(-c2c(C)ccc(O)c2C)c2[nH]ncc2c1` [Compound 38], the figures for the IC50 (in assay [1]; at PKMYT1) were 1000 to 5000 nM and not below 5000 nM, respectively.

Turning to `Cc1ccc(O)c(C)c1-c1cc(C(=O)N(C)C)cc2cn[nH]c12` [Compound 39], the IC50 was 1000 to 5000 nM in assay [1] and not below 5000 nM at PKMYT1.

Regarding `Cc1ccc(O)c(C)c1-c1cc(C(N)=O)cc2cnn(C)c12` [Compound 40, 7-(3-hydroxy-2,6-dimethylphenyl)-1-methyl-indazole-5-carboxamide], the IC50 (in assay [1]; at PKMYT1) was not below 5000 nM in each case.

Consider `Cc1ccc(O)c(C)c1-c1cc(C(N)=O)cn2ccnc12` [Compound 42, 8-(3-hydroxy-2,6-dimethylphenyl)imidazo[1,2-a]pyridine-6-carboxamide], for which the concentration for half-maximal inhibition (IC50) (in assay [1]; at PKMYT1) was 1000 to 5000 nM in each case.

For the compound `Cc1c(O)cccc1-c1c(N)c(C(N)=O)cn2ccnc12` [Compound 43, 7-amino-8-(3-hydroxy-2-methylphenyl)imidazo[1,2-a]pyridine-6-carboxamide], the figures for the IC50 (in assay [1]; on PKMYT1) were not below 5000 nM and 500 to 1000 nM, respectively.

`Cc1ccc(O)c(C)c1-c1c(N)c(C(N)=O)cn2ccnc12` [Compound 46, 7-amino-8-(3-hydroxy-2,6-dimethylphenyl)imidazo[1,2-a]pyridine-6-carboxamide]: the IC50 in assay [1] fell in the range of 1000 to 5000 nM; at PKMYT1, 50 to 500 nM.

Take `Cc1cn2cc(C(N)=O)c(N)c(-c3cccc(O)c3C)c2n1` [Compound 47, 7-Amino-8-(3-hydroxy-2-methylphenyl)-2-methylimidazo[1,2-a]pyridine-6-carboxamide]: the figures for the IC50 (in assay [1]; on PKMYT1) were not below 5000 nM and 50 to 500 nM, respectively.

In the case of `Cc1nc2c(-c3cccc(O)c3C)c(N)c(C(N)=O)cn2c1C` [Compound 48, 7-Amino-8-(3-hydroxy-2-methylphenyl)-2,3-dimethylimidazo[1,2-a]pyridine-6-carboxamide], the IC50 is not below 5000 nM in assay [1] and 50 to 500 nM on PKMYT1.

For `Cc1c(O)cccc1-c1c(N)c(C(N)=O)cn2cc(C(F)(F)F)nc12` [Compound 49, 7-amino-8-(3-hydroxy-2-methylphenyl)-2-(trifluoromethyl)imidazo[1,2-a]pyridine-6-carboxamide], the IC50 in assay [1] is not below 5000 nM; at PKMYT1, 50 to 500 nM.

Consider `COC(=O)c1cnc2c(-c3cccc(O)c3C)c(N)c(C(N)=O)cn12` [Compound 50, Methyl 7-amino-6-carbamoyl-8-(3-hydroxy-2-methylphenyl)imidazo[1,2-a]pyridine-3-carboxylate], for which the IC50 in assay [1] lay within 500 to 1000 nM; on PKMYT1, 50 to 500 nM.

Consider `Cc1c(O)cccc1-c1c(N)c(C(N)=O)nc2c1c(C(N)=O)nn2C` [Compound 55, 5-amino-4-(3-hydroxy-2-methylphenyl)-1-methyl-1H-pyrazolo[3,4-b]pyridine-3,6-dicarboxamide], for which the IC50 in assay [1] was 50 to 500 nM; on PKMYT1 it was less than 50 nM.

Take `Cc1c(O)cccc1-c1c(N)c(C(N)=O)nc2c1cnn2C` [Compound 56, 5-Amino-4-(3-hydroxy-2-methylphenyl)-1-methyl-pyrazolo[3,4-b]pyridine-6-carboxamide]: the half-maximal inhibitory concentration (IC50) in assay [1] was not below 5000 nM; on PKMYT1 it was 50 to 500 nM.

With `Cc1c(O)cccc1-c1c(N)c(C(N)=O)nc2c1c(Br)nn2C` [Compound 57, 5-Amino-3-bromo-4-(3-hydroxy-2-methylphenyl)-1-methyl-1H-pyrazolo[3,4-b]pyridine-6-carboxamide], the IC50 (in assay [1]; at PKMYT1) was 50 to 500 nM in each case.

For the compound `Cn1cc(C#N)c2c(-c3cncc(Cl)c3Cl)c(N)c(C(N)=O)nc21` [Compound 66, 5-Amino-3-cyano-4-(4,5-dichloropyridin-3-yl)-1-methyl-1H-pyrrolo[2,3-b]pyridine-6-carboxamide], the values for the IC50 (in assay [1]; at PKMYT1) were 50 to 500 nM and less than 50 nM, respectively.

Regarding `COc1c(F)cncc1-c1c(N)c(C(N)=O)nc2c1c(C#N)cn2C` [Compound 67, 5-Amino-3-cyano-4-(5-fluoro-4-methoxypyridin-3-yl)-1-methyl-1H-pyrrolo[2,3-b]pyridine-6-carboxamide], the IC50 (in assay [1]; on PKMYT1) was less than 50 nM in each case.

As to `CCn1nc(C(=O)NC)c2c(-c3c(C)ccc(O)c3C)c(N)c(C(N)=O)nc21` [Compound 73, 5-Amino-1-ethyl-4-(3-hydroxy-2,6-dimethylphenyl)-N^3-methyl-1H-pyrazolo[3,4-b]pyridine-3,6-dicarboxamide], the IC50 (in assay [1]; on PKMYT1) was less than 50 nM throughout.
